The results in this text go back to patent US9783536B2, “Nitrogen-containing heterocyclic compound or salt thereof” (FUJIFILM Corporation, priority 2013, dated 2017).

The target of one test is T1, human PI3Kα protein (Homo sapiens, UniProt P42336).
T1 construct: purchased Carna Biosciences, Inc; host or cells: baculovirus expression system
As to the kind of experiment: PI3Kα enzyme assay (ADP-Glo). Type of test: biochemical. The note with it: read-out: PI3Kα enzyme inhibitory activity. In a few lines: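 Biotinylated human PI3Kα (baculovirus-expressed, 4.5 nmol/L) pre-incubated 15 min with compound in Tris-HCl pH 7.5, MgCl2, BSA; reaction 60 min at 25° C with 50 μmol/L PIP2 and 100 μmol/L ATP final. ADP quantified by ADP-Glo luminescence; IC50 calculated.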
In general terms: In ADP-Glo the light output rises with the ADP produced.

The target of test [1] is T2, GST fusion human ERK2 protein (Homo sapiens, UniProt P28482).
T2 construct: purchased Carna Biosciences, Inc; host or cells: E. coli expression system
T2 sequence (P28482 whole entry, the tested form may be a part): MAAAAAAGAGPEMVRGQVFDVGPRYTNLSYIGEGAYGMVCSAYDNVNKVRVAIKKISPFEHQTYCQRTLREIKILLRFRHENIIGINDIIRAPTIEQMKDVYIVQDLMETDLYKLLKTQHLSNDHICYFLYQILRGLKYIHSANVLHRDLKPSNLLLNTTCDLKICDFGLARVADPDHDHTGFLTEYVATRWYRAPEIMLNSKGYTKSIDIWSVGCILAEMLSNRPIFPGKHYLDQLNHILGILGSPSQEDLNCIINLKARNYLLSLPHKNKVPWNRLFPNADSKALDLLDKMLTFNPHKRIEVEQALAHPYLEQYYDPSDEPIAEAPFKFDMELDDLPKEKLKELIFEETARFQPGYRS
Briefly: ERK2 enzyme assay (2). Type of test: biochemical. To be noted: ERK2 enzyme assay (2); read-out: ERK2 enzyme inhibitory activity (2). The gist of the method: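 GST-tagged human ERK2 expressed in E. coli (1.25 nmol/L) was preincubated with compound for 15 min at room temperature in pH 7.5 Hepes buffer with MgCl2, DTT and Brij35. Reaction with FL-Peptide 8 (final 4.25 μmol/L) and ATP (final 1 mmol/L) ran 120 min at 25 °C; EDTA stopped it, and phosphorylated peptide was quantified by mobility-shift separation to derive IC50.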

pIC50: −log10 of the molar value.

T1 sequence (P42336 whole entry): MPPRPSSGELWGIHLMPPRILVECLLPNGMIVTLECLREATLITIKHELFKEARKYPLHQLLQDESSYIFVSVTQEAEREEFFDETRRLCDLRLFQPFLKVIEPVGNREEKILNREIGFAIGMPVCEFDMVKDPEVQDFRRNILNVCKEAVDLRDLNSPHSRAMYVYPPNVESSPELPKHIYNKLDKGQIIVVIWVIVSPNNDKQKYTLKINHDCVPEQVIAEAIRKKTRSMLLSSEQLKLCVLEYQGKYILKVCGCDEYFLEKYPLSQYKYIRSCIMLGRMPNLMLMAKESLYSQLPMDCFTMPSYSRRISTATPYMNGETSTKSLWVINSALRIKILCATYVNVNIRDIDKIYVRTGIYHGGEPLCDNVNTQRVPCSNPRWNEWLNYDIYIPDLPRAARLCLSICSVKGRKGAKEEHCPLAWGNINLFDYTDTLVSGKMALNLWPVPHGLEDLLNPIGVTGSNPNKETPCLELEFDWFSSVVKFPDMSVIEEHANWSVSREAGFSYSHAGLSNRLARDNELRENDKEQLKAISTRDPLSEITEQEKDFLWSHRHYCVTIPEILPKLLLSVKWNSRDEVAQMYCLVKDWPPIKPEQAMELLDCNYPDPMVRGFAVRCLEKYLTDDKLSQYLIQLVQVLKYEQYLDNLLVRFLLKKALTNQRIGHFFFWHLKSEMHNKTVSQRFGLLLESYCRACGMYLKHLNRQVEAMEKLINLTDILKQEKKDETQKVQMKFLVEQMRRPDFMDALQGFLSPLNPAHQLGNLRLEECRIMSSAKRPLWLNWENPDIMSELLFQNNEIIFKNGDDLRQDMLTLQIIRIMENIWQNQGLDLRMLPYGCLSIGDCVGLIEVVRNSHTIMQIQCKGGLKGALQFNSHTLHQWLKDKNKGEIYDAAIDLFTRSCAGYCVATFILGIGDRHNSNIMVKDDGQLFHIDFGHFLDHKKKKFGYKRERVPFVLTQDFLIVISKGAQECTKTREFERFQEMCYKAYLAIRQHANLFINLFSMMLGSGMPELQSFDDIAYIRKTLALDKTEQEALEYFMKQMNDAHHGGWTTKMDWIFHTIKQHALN
T1 sequence (P27986 whole entry partner): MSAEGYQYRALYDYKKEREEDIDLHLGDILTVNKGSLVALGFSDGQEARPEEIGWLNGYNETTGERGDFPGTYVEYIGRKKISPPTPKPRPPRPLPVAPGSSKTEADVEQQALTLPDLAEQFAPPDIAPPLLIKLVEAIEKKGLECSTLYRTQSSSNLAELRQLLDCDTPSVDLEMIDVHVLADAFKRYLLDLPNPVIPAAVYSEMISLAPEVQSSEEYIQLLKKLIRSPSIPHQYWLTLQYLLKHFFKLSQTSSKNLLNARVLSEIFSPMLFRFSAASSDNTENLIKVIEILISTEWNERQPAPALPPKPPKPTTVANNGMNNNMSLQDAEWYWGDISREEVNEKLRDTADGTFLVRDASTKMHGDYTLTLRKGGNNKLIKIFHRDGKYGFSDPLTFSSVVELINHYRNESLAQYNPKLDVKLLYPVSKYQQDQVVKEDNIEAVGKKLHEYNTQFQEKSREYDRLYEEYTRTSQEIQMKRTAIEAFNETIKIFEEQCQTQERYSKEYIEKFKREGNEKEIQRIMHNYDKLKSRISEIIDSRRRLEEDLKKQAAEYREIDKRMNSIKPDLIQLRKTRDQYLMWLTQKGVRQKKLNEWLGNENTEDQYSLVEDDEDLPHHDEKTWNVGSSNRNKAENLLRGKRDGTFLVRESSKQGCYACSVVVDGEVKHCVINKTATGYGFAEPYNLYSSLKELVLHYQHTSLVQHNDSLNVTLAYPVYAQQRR

For `CC(C)c1cnnc(Nc2ccc3ncc(-c4cnn(CCCN5CC(F)(F)C5)c4)cc3n2)c1` [Example 0692], the pIC50 (on human PI3Kα protein; in test [1]) was > 6.00 in each case.
With `CC(C)c1cnnc(Nc2ccc3ncc(-c4cnn(CCCN5CC(NC(=O)OC(C)(C)C)C5)c4)cc3n2)c1` [Example 0693], the pIC50 (at human PI3Kα protein; in test [1]) was > 6.00 throughout.
Take `CC(C)c1cnnc(Nc2ccc3ncc(-c4cnn(CCCN5CC(NC(=O)C(F)(F)F)C5)c4)cc3n2)c1` [Example 0696]: the pIC50 (at human PI3Kα protein; in test [1]) was > 6.00 in each case.
As for `Cc1cn(-c2cnc3ccc(Nc4cc(C(C)C)cnn4)nc3c2)c(C)n1` [Example 0698, 7-(2,4-dimethyl-1H-imidazol-1-yl)-N-(5-isopropylpyridazin-3-yl)-1,5-naphthyridine-2-amine], the pIC50 is 5.00 to 6.00 on human PI3Kα protein and > 6.00 in test [1].
With `CC(C)c1cnnc(Nc2ccc3ncc(-c4cnn(CCCN5CC(OCC(F)(F)F)C5)c4)cc3n2)c1` [Example 0699], the pIC50 (on human PI3Kα protein; in test [1]) was > 6.00 throughout.
For `CC(C)c1cnnc(Nc2ccc3ncc(-c4cnn(CCCN(C)CC(F)(F)F)c4)cc3n2)c1` [Example 0700, N-(5-isopropylpyridazin-3-yl)-7-(1-(3-(methyl (2,2,2-trifluoroethyl)amino)propyl)-1H-pyrazol-4-yl)-1,5-naphthyridine-2-amine], the pIC50 (at human PI3Kα protein; in test [1]) was > 6.00 in each case.
With `Cc1ccc(S(=O)(=O)NC2CN(CCCn3cc(-c4cnc5ccc(Nc6cc(C(C)C)cnn6)nc5c4)cn3)C2)cc1` [Example 0701], the pIC50 (on human PI3Kα protein; in test [1]) was > 6.00 throughout.
On to `CC(C)c1cnnc(Nc2ccc3ncc(-c4cnn(CCCN5CC(O)(CCO)C5)c4)cc3n2)c1` [Example 0702], for which the pIC50 (on human PI3Kα protein; in test [1]) was > 6.00 in each case.
Consider `CC(C)c1cnnc(Nc2ccc3ncc(-c4cnn(Cc5ccccc5[N+](=O)[O-])c4)cc3n2)c1` [Example 0703, N-(5-isopropylpyridazin-3-yl)-7-(1-(2-nitrobenzyl)-1H-pyrazol-4-yl)-1,5-naphthyridine-2-amine], for which the pIC50 (on human PI3Kα protein; in test [1]) was > 6.00 in each case.
Regarding `CC(C)c1cnnc(Nc2ccc3ncc(-c4cnn(CCCN5CC6(CCO6)C5)c4)cc3n2)c1` [Example 0704, 7-(1-(3-(1-Oxa-6-azaspiro[3.3]heptan-6-yl)propyl)-1H-pyrazol-4-yl)-N-(5-isopropylpyridazin-3-yl)-1,5-naphthyridine-2-amine], the pIC50 (at human PI3Kα protein; in test [1]) was > 6.00 in each case.
For `CC(C)c1cnnc(Nc2ccc3ncc(-c4cnn(Cc5ccccc5N)c4)cc3n2)c1` [Example 0705, 7-(1-(2-aminobenzyl)-1H-pyrazol-4-yl)-N-(5-isopropylpyridazin-3-yl)-1,5-naphthyridine-2-amine], the pIC50 (at human PI3Kα protein; in test [1]) was > 6.00 each time.
As to `CCCOC1CN(CCCn2cc(-c3cnc4ccc(Nc5cc(C(C)C)cnn5)nc4c3)cn2)C1` [Example 0706], the pIC50 (on human PI3Kα protein; in test [1]) was > 6.00 throughout.
Take `CCCCOC1CN(CCCn2cc(-c3cnc4ccc(Nc5cc(C(C)C)cnn5)nc4c3)cn2)C1` [Example 0707]: the pIC50 (at human PI3Kα protein; in test [1]) was > 6.00 throughout.
For the compound `CC(C)COC1CN(CCCn2cc(-c3cnc4ccc(Nc5cc(C(C)C)cnn5)nc4c3)cn2)C1` [Example 0708], the pIC50 (at human PI3Kα protein; in test [1]) was > 6.00 each time.
For `CC(C)c1cnnc(Nc2ccc3ncc(-c4cnn(CCCN5CC(OCC6CC6)C5)c4)cc3n2)c1` [Example 0709], the pIC50 (at human PI3Kα protein; in test [1]) was > 6.00 each time.
Regarding `CC(C)OC1CN(CCCn2cc(-c3cnc4ccc(Nc5cc(C(C)C)cnn5)nc4c3)cn2)C1` [Example 0710, 7-(1-(3-(3-Isopropoxyazetidin-1-yl)propyl)-1H-pyrazol-4-yl)-N-(5-isopropylpyridazin-3-yl)-1,5-naphthyridine-2-amine], the pIC50 (at human PI3Kα protein; in test [1]) was > 6.00 each time.
On to `CC(C)c1cnnc(Nc2ccc3ncc(-c4cnn(Cc5cccc([N+](=O)[O-])c5)c4)cc3n2)c1` [Example 0711], for which the pIC50 (on human PI3Kα protein; in test [1]) was > 6.00 each time.
Regarding `CC(C)c1cnnc(Nc2ccc3ncc(-c4cnn(CCCN5CC(OCCF)C5)c4)cc3n2)c1` [Example 0713, 7-(1-(3-(3-(2-Fluoroethoxy)azetidin-1-yl)propyl)-1H-pyrazol-4-yl)-N-(5-isopropylpyridazin-3-yl)-1,5-naphthyridine-2-amine], the pIC50 (on human PI3Kα protein; in test [1]) was > 6.00 each time.
As for `CC(C)c1cnnc(Nc2ccc3ncc(-c4cnn(CCCN5CC(OCC(F)F)C5)c4)cc3n2)c1` [Example 0714], the pIC50 (at human PI3Kα protein; in test [1]) was > 6.00 each time.
Regarding `CC(C)c1cnnc(Nc2ccc3ncc(-c4cnn(CCCN5CC(Oc6ccccc6)C5)c4)cc3n2)c1` [Example 0715, N-(5-isopropylpyridazin-3-yl)-7-(1-(3-(3-phenoxyazetidin-1-yl)propyl)-1H-pyrazol-4-yl)-1,5-naphthyridine-2-amine], the pIC50 (on human PI3Kα protein; in test [1]) was > 6.00 each time.
Regarding `CC(C)c1cnnc(Nc2ccc3ncc(-c4cnn(Cc5ccc([N+](=O)[O-])cc5)c4)cc3n2)c1` [Example 0716], the pIC50 (at human PI3Kα protein; in test [1]) was > 6.00 in each case.
Regarding `CC(C)c1cnnc(Nc2ccc3ncc(-c4cnn(Cc5ccc(N)cc5)c4)cc3n2)c1` [Example 0717, 7-(1-(4-Aminobenzyl)-1H-pyrazol-4-yl)-N-(5-isopropylpyridazin-3-yl)-1,5-naphthyridine-2-amine], the pIC50 (on human PI3Kα protein; in test [1]) was > 6.00 each time.
As to `COCCOC1CN(CCCn2cc(-c3cnc4ccc(Nc5cc(C(C)C)cnn5)nc4c3)cn2)C1` [Example 0718, N-(5-isopropylpyridazin-3-yl)-7-(1-(3-(3-(2-methoxyethoxy)azetidin-1-yl)propyl)-1H-pyrazol-4-yl)-1,5-naphthyridine-2-amine], the pIC50 (at human PI3Kα protein; in test [1]) was > 6.00 in each case.
Consider `Cc1n[nH]cc1-c1cnc2ccc(Nc3cc(C(C)C)cnn3)nc2c1` [Example 0719, N-(5-isopropylpyridazin-3-yl)-7-(3-methyl-1H-pyrazol-4-yl)-1,5-naphthyridine-2-amine], for which the pIC50 (at human PI3Kα protein; in test [1]) was > 6.00 in each case.
For the compound `Cc1nn(C)nc1-c1cnc2ccc(Nc3cc(C(C)C)cnn3)nc2c1` [Example 0720, 7-(2,5-Dimethyl-2H-1,2,3-triazol-4-yl)-N-(5-isopropylpyridazin-3-yl)-1,5-naphthyridine-2-amine], the pIC50 (at human PI3Kα protein; in test [1]) was > 6.00 in each case.
As for `CC(C)c1cnnc(Nc2ccc3ncc(-c4cnn(CCCN5CC(N(C)S(C)(=O)=O)C5)c4)cc3n2)c1` [Example 0721, N-(1-(3-(4-(6-((5-isopropylpyridazin-3-yl)amino)-1,5-naphthyridin-3-yl)-1H-pyrazol-1-yl)propyl)azetidin-3-yl)-N-methylmethane sulfonamide], the pIC50 (at human PI3Kα protein; in test [1]) was > 6.00 each time.
For the compound `CC(C)c1cnnc(Nc2ccc3ncc(-c4cnn(Cc5cncnc5)c4)cc3n2)c1` [Example 0722], the pIC50 (on human PI3Kα protein; in test [1]) was > 6.00 in each case.
Regarding `CC(C)c1cnnc(Nc2ccc3ncc(-c4cnn(/C=C(\F)CN5CCCC5)c4)cc3n2)c1` [Example 0726, (Z)-7-(1-(2-fluoro-3-(pyrrolidin-1-yl)-1-propen-1-yl)-1H-pyrazol-4-yl)-N-(5-isopropylpyridazin-3-yl)-1,5-naphthyridine-2-amine], the pIC50 (on human PI3Kα protein; in test [1]) was > 6.00 in each case.
For the compound `CC(C)c1cnnc(Nc2ccc3ncc(-c4cnn(CC(F)CN5CCCC5)c4)cc3n2)c1` (stereo not drawn) [Example 0727], the pIC50 (on human PI3Kα protein; in test [1]) was > 6.00 in each case.
For `CC(C)c1cnnc(Nc2ccc3ncc(-c4cnn(CC5CN(C)CCO5)c4)cc3n2)c1` (stereo not drawn) [Example 0728, N-(5-isopropylpyridazin-3-yl)-7-(1-((4-methylmorpholin-2-yl)methyl)-1H-pyrazol-4-yl)-1,5-naphthyridine-2-amine], the pIC50 (on human PI3Kα protein; in test [1]) was > 6.00 in each case.
As for `CC(C)c1cnnc(Nc2ccc3ncc(-c4cnn(CC(O)CN5CCOCC5)c4)cc3n2)c1` (stereo not drawn) [Example 0729], the pIC50 (at human PI3Kα protein; in test [1]) was > 6.00 in each case.
Take `COC(CN1CCOCC1)Cn1cc(-c2cnc3ccc(Nc4cc(C(C)C)cnn4)nc3c2)cn1` (stereo not drawn) [Example 0730]: the pIC50 (at human PI3Kα protein; in test [1]) was > 6.00 throughout.
Turning to `CC(C)c1cnnc(Nc2ccc3ncc(-c4cnn(CC(F)(F)CN5CCOCC5)c4)cc3n2)c1` [Example 0731], the pIC50 (at human PI3Kα protein; in test [1]) was > 6.00 each time.
As to `CC(C)c1cnnc(Nc2ccc3ncc(-c4cnn(CC(CN5CCOCC5)OCc5ccccc5)c4)cc3n2)c1` (stereo not drawn) [Example 0732], the pIC50 (on human PI3Kα protein; in test [1]) was > 6.00 in each case.
For the compound `Cc1ccc(-c2nn(C)cc2-c2cnc3ccc(Nc4cc(C(C)C)cnn4)nc3c2)cn1` [Example 0734], the pIC50 (on human PI3Kα protein; in test [1]) was > 6.00 each time.
`CC(C)c1cnnc(Nc2ccc3ncc(-c4cnn(CC(F)(F)CN5CCCC5)c4)cc3n2)c1` [Example 0735, 7-(1-(2,2-Difluoro-3-(pyrrolidin-1-yl)propyl)-1H-pyrazol-4-yl)-N-(5-isopropylpyridazin-3-yl)-1,5-naphthyridine-2-amine]: the pIC50 (on human PI3Kα protein; in test [1]) was > 6.00 in each case.
